Laboratory results taken from PMC8880564, “Design, Synthesis, and Biological Evaluation of a Novel VEGFR-2 Inhibitor Based on a 1,2,5-Oxadiazole-2-Oxide Scaffold with MAPK Signaling Pathway Inhibition” (Pharmaceuticals, 2022).

Experiments:
Format in all cases: cell-based
[1] = test system: 786-0; test: NCI-60 one-dose SRB screening; settings: Homo sapiens, 786-0, Renal Cancer, 10 µM one dose, 48 h, read-out: growth percentage
Description: (§1) The structures of the synthesized compounds 6a–h, 12a–c, 11, 13a–c, and 14a–c were submitted to the National Cancer Institute’s Developmental Therapeutics Program (NCI-DTP), and all of them were selected for preliminary in vitro anticancer activity screening against NCI-59 human cancer cell lines at a concentration of 10 µM, using the sulforhodamine B (SRB) assay to determine the growth percentage and cell viability.
(§2) The in vitro NCI-60 cell line screening assay was conducted at the National Cancer Institute (NCI), Bethesda, USA against 59 cancer cell lines representing 9 types of cancers, as reported earlier. Briefly, the human cancer cell lines were grown in RPMI 1640 medium containing 5% fetal bovine serum and 2 mM L-glutamine and inoculated into 96-well microtiter plates in 100 μL (5000 to 40,000 cells/well). Then, the plates were incubated at 37 °C, 5% CO2, 95% air, and 100% relative humidity for 24 h. After that, two plates of each cell line were fixed in situ with TCA, to represent cell population at time zero (Tz). The tested compounds were dissolved in DMSO at 400-fold and added so that the final concentration became 10 μM. The plates were then incubated for an additional 48 h followed by the addition of cold TCA to terminate the assay in case of adherent cells. Then, the cells were fixed in situ by cold 50% (w/v) TCA (50 μL; final concentration, 10% TCA) and incubated for 1 h at 4 °C. After discarding the supernatant, the plates were washed 5 times with tap water and air dried. Sulforhodamine B (SRB) solution (100 μL) at 0.4% (w/v) in 1% HOAc was added to each well, and plates were incubated for 10 min. at rt. Then, washing with 1% acetic acid was conducted 5 times to remove the unbound dye followed by air drying. After that, 10 mM trizma base was added to solubilize the bound stain, and the absorbance was read on an automated plate reader at a wavelength of 515 nm. On the other hand, the methodology for suspension cells was the same except that 50 μL of 80% TCA (final concentration, 16% TCA) was gently added to terminate the assay by fixing settled cells at the bottom of the wells. Percentage growth inhibition (GI%) was calculated as follows:
(§3) Growth percentage=Ti (test growth in the presence of compound at 10 µM )−Tz (time zero)/C (control growth)−Tz (time zero)×100 for Ti ≥ Tz;
(§4) Growth percentage=Ti (test growth in the presence of compound at 10 µM )−Tz (time zero)/Tz (time zero)×100 for Ti < Tz.
(§5) where values of 100, 40, 0, −40, and −100 mean no GI, 60% GI, no net G, 40% lethality, and all cells are dead, respectively.

[2] = test system: A549/ATCC; test: NCI-60 one-dose SRB screening; settings: Homo sapiens, Non-Small Cell Lung Cancer, 10 µM one dose, 48 h, read-out: growth percentage
Description: as §1, §2, §3, §4, §5

[3] = test system: CAKI-1; test: NCI-60 one-dose SRB screening; settings: Homo sapiens, CAKI-1, Renal Cancer, 10 µM one dose, 48 h, read-out: growth percentage
Description: as §1, §2, §3, §4, §5

[4] = test system: DU-145; test: NCI-60 one-dose SRB screening; settings: Homo sapiens, DU-145, Prostate Cancer, 10 µM one dose, 48 h, read-out: growth percentage
Description: as §1, §2, §3, §4, §5

[5] = test system: HCT-15; test: NCI-60 one-dose SRB screening; settings: Homo sapiens, HCT-15, Colon Cancer, 10 µM one dose, 48 h, read-out: growth percentage
Description: as §1, §2, §3, §4, §5

[6] = test system: IGROV1; test: NCI-60 one-dose SRB screening; settings: Homo sapiens, IGROV-1, IGROV1, Ovarian Cancer, 10 µM one dose, 48 h, read-out: growth percentage
Description: as §1, §2, §3, §4, §5

[7] = test system: LOX IMVI; test: NCI-60 one-dose SRB screening; settings: Homo sapiens, Melanoma, 10 µM one dose, 48 h, read-out: growth percentage
Description: as §1, §2, §3, §4, §5

[8] = test system: M14; test: NCI-60 one-dose SRB screening; settings: Homo sapiens, M14, Melanoma, 10 µM one dose, 48 h, read-out: growth percentage
Description: as §1, §2, §3, §4, §5

[9] = test system: MALME-3M; test: NCI-60 one-dose SRB screening; settings: Homo sapiens, Melanoma, 10 µM one dose, 48 h, read-out: growth percentage
Description: as §1, §2, §3, §4, §5

[10] = test system: MDA-MB-231/ATCC; test: NCI-60 one-dose SRB screening; settings: Homo sapiens, Breast Cancer, 10 µM one dose, 48 h, read-out: growth percentage
Description: as §1, §2, §3, §4, §5

[11] = test system: MOLT-4; test: NCI-60 one-dose SRB screening; settings: Homo sapiens, MOLT-4, Leukemia, 10 µM one dose, 48 h, read-out: growth percentage
Description: as §1, §2, §3, §4, §5

[12] = test system: NCI-H226; test: NCI-60 one-dose SRB screening; settings: Homo sapiens, NCI-H226, Non-Small Cell Lung Cancer, 10 µM one dose, 48 h, read-out: growth percentage
Description: as §1, §2, §3, §4, §5

[13] = test system: NCI-H522; test: NCI-60 one-dose SRB screening; settings: Homo sapiens, NCI-H522, Non-Small Cell Lung Cancer, 10 µM one dose, 48 h, read-out: growth percentage
Description: as §1, §2, §3, §4, §5

[14] = test system: OVCAR-8; test: NCI-60 one-dose SRB screening; settings: Homo sapiens, OVCAR-8, Ovarian Cancer, 10 µM one dose, 48 h, read-out: growth percentage
Description: as §1, §2, §3, §4, §5

[15] = test system: RXF 393; test: NCI-60 one-dose SRB screening; settings: Homo sapiens, RXF 393, Renal Cancer, 10 µM one dose, 48 h, read-out: growth percentage
Description: as §1, §2, §3, §4, §5

[16] = test system: SK-MEL-28; test: NCI-60 one-dose SRB screening; settings: Homo sapiens, SK-MEL-28, Melanoma, 10 µM one dose, 48 h, read-out: growth percentage
Description: as §1, §2, §3, §4, §5

[17] = test system: SK-MEL-5; test: NCI-60 one-dose SRB screening; settings: Homo sapiens, SK-MEL-5, Melanoma, 10 µM one dose, 48 h, read-out: growth percentage
Description: as §1, §2, §3, §4, §5

[18] = test system: T-47D; test: NCI-60 one-dose SRB screening; settings: Homo sapiens, T47D, Breast Cancer, 10 µM one dose, 48 h, read-out: growth percentage
Description: as §1, §2, §3, §4, §5

[19] = test system: TK-10; test: NCI-60 one-dose SRB screening; settings: Homo sapiens, TK-10, Renal Cancer, 10 µM one dose, 48 h, read-out: growth percentage
Description: as §1, §2, §3, §4, §5

[20] = test system: U251; test: NCI-60 one-dose SRB screening; settings: Homo sapiens, U-251, U251, CNS Cancer, 10 µM one dose, 48 h, read-out: growth percentage
Description: as §1, §2, §3, §4, §5

[21] = test system: UO-31; test: NCI-60 one-dose SRB screening; settings: Homo sapiens, UO-31, Renal Cancer, 10 µM one dose, 48 h, read-out: growth percentage
Description: as §1, §2, §3, §4, §5

[22] = test system: NCI-59 human cancer cell lines; test: NCI-60 one-dose SRB screening, full panel and subpanels; settings: for activity at 10 µM: mean over the full panel, 10 µM one dose, 48 h, SRB, read-out: growth percentage, Mean
Description: as §1, §2, §3, §4, §5
Data are expressed as a one-dose mean graph of growth percentages including the mean, delta, and range.

SMILES	activity at 10 µM [1]	activity at 10 µM [2]	activity at 10 µM [3]	activity at 10 µM [4]	activity at 10 µM [5]	activity at 10 µM [6]	activity at 10 µM [7]	activity at 10 µM [8]	activity at 10 µM [9]	activity at 10 µM [10]	activity at 10 µM [11]	activity at 10 µM [12]	activity at 10 µM [13]	activity at 10 µM [14]	activity at 10 µM [15]	activity at 10 µM [16]	activity at 10 µM [17]	activity at 10 µM [18]	activity at 10 µM [19]	activity at 10 µM [20]	further results
Cc1nc(Nc2ccc(OCc3c(-c4ccccc4)no[n+]3[O-])cc2)c2c(C)nn(-c3ccccc3)c2n1 [6d, 3-((4-((3,6-dimethyl-1-phenyl-1H-pyrazolo[3,4-d]pyrimidin-4-yl)amino)phenoxy)methyl)-4-phenyl-1,2,5-oxadiazole 2-oxide]	107%	103%	101%	112%	104%	106%	96.6%	96.2%	101%	101%	110%	101%	105%	107%	119%	102%	98%	104%	126%	106%	activity at 10 µM [21]: 88.5%; activity at 10 µM ([22]; Homo sapiens): 105%; enhancement of the growth percentage (mean) ([22]; full NCI-59 panel, 10 µM): 1–5%
[O-][n+]1onc(-c2ccccc2)c1COc1ccc(Nc2ncnc3c2cnn3-c2ccc(Br)cc2)cc1 [6e, 3-((4-((1-(4-bromophenyl)-1H-pyrazolo[3,4-d]pyrimidin-4-yl)amino)phenoxy)methyl)-4-phenyl-1,2,5-oxadiazole 2-oxide]	96.1%	93.5%	82.1%	107%	94.9%	106%	111%	102%	95.3%	108%	103%	104%	96.1%	105%	119%	99.3%	95.9%	99.9%	107%	102%	activity at 10 µM [21]: 84.7%; activity at 10 µM ([22]; Homo sapiens): 101%; enhancement of the growth percentage (mean) ([22]; full NCI-59 panel, 10 µM): 1–5%
Cc1nc(Nc2ccc(OCc3c(-c4ccccc4)no[n+]3[O-])cc2)c2cnn(-c3ccc(Br)cc3)c2n1 [6f, 3-((4-((1-(4-bromophenyl)-6-methyl-1H-pyrazolo[3,4-d]pyrimidin-4-yl)amino)phenoxy)methyl)-4-phenyl-1,2,5-oxadiazole 2-oxide]	82.2%	94.9%	81.9%	104%	98.1%	101%	105%	94.2%	106%	106%	91.5%	108%	92.5%	106%	121%	103%	99.7%	97.2%	97.7%	99%	activity at 10 µM [21]: 82.7%; activity at 10 µM ([22]; Homo sapiens): 99.7%; mean growth inhibition % (MGI%, GI%) ([22]; full NCI-59 panel, 10 µM): no mean growth inhibition percentage
Cc1nn(-c2ccc(Br)cc2)c2ncnc(Nc3ccc(OCc4c(-c5ccccc5)no[n+]4[O-])cc3)c12 [6g, 3-((4-((1-(4-bromophenyl)-3-methyl-1H-pyrazolo[3,4-d]pyrimidin-4-yl)amino)phenoxy)methyl)-4-phenyl-1,2,5-oxadiazole 2-oxide]	122%	97.3%	84.9%	110%	97.2%	88.2%	95%	94%	91.6%	84.9%	97.7%	89.9%	92%	93.9%	131%	99.5%	96.5%	98.5%	123%	102%	activity at 10 µM [21]: 81.5%; inhibition at 10 µM ([22]; Homo sapiens, full NCI-59 panel, 10 µM, read-out: mean growth inhibition % (MGI%, GI%)): 1.58 to 4.57%; activity at 10 µM ([22]; Homo sapiens): 98.4%
